Laboratory results taken from ChEMBL document CHEMBL1201862, “PubChem BioAssay data set” (2004).
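A five-concentration, 48-hour dose response in 96-well plates underlies each endpoint, interpolated linearly between surrounding concentrations. Here, GI50 denotes the concentration required for 50% inhibition of growth.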 Calls of active or inactive are those of the source. Rule as the data show it: active = GI50 up to about 1.1 µM and inactive = higher.

Key:
Assay in all cases: NCI-60 cell line screen, 48 h
U-251 = test system: U-251
MDA-MB-231 = test system: MDA-MB-231
HCT-116 = test system: HCT-116
MOLT-4 = test system: MOLT-4
HCC 2998 = test system: HCC 2998
SF-268 = test system: SF-268
HT-29 = test system: HT-29
CAKI-1 = test system: CAKI-1
OVCAR-5 = test system: OVCAR-5
SF-539 = test system: SF-539
Hs-578T = test system: Hs-578T
KM12 = test system: KM12
COLO 205 = test system: COLO 205
T47D = test system: T47D
IGROV-1 = test system: IGROV-1
NCI/ADR-RES = test system: NCI/ADR-RES
SK-OV-3 = test system: SK-OV-3
NCI-H226 = test system: NCI-H226
NCI-H522 = test system: NCI-H522
MDA-MB-435 = test system: MDA-MB-435

Measured: GI50

CC1CN=C(N(Cc2ccccc2)C(=O)Nc2ccc(Cl)c(Cl)c2)S1 (stereo not given)
inactive: U-251 32.4 µM | MDA-MB-231 27.2 µM | HCT-116 27.7 µM | MOLT-4 > 10 µM | HCC 2998 > 10 µM | SF-268 62.7 µM | HT-29 30.1 µM | CAKI-1 36.1 µM | OVCAR-5 29.2 µM | SF-539 33.3 µM | Hs-578T 53.1 µM | KM12 40.7 µM | COLO 205 31.4 µM | T47D 16.9 µM | IGROV-1 32.5 µM | NCI/ADR-RES 21.4 µM | SK-OV-3 52.4 µM

COC(=O)c1c(O)c2c(c3c1OC(C)(C)CC3)OC(C)(C)CC2
inactive: U-251 15.2 µM | MDA-MB-231 13.7 µM | HCT-116 16.8 µM | NCI-H226 19.3 µM | MOLT-4 22.7 µM | HCC 2998 16.4 µM | SF-268 22.9 µM | HT-29 16.7 µM | CAKI-1 21.8 µM | OVCAR-5 18.4 µM | SF-539 18 µM | Hs-578T 20.8 µM | KM12 16.9 µM | COLO 205 15 µM | T47D 21.8 µM | IGROV-1 19.6 µM | NCI/ADR-RES 22.1 µM | NCI-H522 15.8 µM | SK-OV-3 27.3 µM

O=C1[C@@H]2Cc3c([nH]c4ccccc34)C(C3CCCCC3)N2C(=O)[C@@H]2CCCN12 (stereo not given in full)
inactive: U-251 33.8 µM | MDA-MB-435 34.2 µM | MDA-MB-231 21.1 µM | HCT-116 27.5 µM | NCI-H226 43.1 µM | MOLT-4 23 µM | SF-268 33.5 µM | HT-29 28.5 µM | CAKI-1 31.7 µM | OVCAR-5 37.8 µM | Hs-578T 27.9 µM | KM12 23.3 µM | COLO 205 21.5 µM | T47D 60 µM | IGROV-1 29.6 µM | NCI/ADR-RES 22 µM | NCI-H522 23 µM | SK-OV-3 46.9 µM

O=[N+]([O-])c1ccc(C[S+]([O-])Cc2ccccc2)cc1 (stereo not given)
inactive: U-251 > 100 µM | MDA-MB-435 > 100 µM | MDA-MB-231 > 100 µM | HCT-116 > 100 µM | NCI-H226 > 100 µM | MOLT-4 > 100 µM | SF-268 > 100 µM | HT-29 > 100 µM | CAKI-1 > 100 µM | OVCAR-5 > 100 µM | SF-539 > 100 µM | Hs-578T > 100 µM | KM12 > 100 µM | COLO 205 > 100 µM | T47D > 100 µM | IGROV-1 > 100 µM | NCI/ADR-RES > 100 µM | NCI-H522 > 100 µM | SK-OV-3 > 100 µM

O=C1c2ccccc2-c2c1c(-c1ccc(F)cc1)nc1ccc3ccccc3c21
inactive: U-251 > 100 µM | MDA-MB-435 > 100 µM | MDA-MB-231 > 100 µM | HCT-116 > 100 µM | NCI-H226 > 100 µM | MOLT-4 > 100 µM | HCC 2998 > 100 µM | SF-268 > 100 µM | HT-29 > 100 µM | CAKI-1 > 100 µM | OVCAR-5 > 100 µM | SF-539 > 100 µM | Hs-578T > 100 µM | KM12 > 100 µM | COLO 205 > 100 µM | T47D > 100 µM | NCI/ADR-RES > 100 µM | SK-OV-3 > 100 µM

Cc1cc(CCC(=O)NCCNc2c3ccccc3nc3ccccc23)cc(C)c1O[Si](C)(C)C(C)(C)C
inactive: MDA-MB-231 13.1 µM | NCI-H226 17.1 µM | OVCAR-5 1.69 µM | Hs-578T 2.01 µM | IGROV-1 1.76 µM | NCI/ADR-RES 1.81 µM | NCI-H522 1.73 µM | SK-OV-3 1.61 µM
active: U-251 0.312 µM | MDA-MB-435 0.3 µM | HCT-116 0.363 µM | MOLT-4 0.414 µM | HT-29 0.446 µM | SF-539 0.194 µM | KM12 0.366 µM | COLO 205 1.03 µM | T47D 0.351 µM

NC(=O)c1ccc(/N=N/O)nc1
inactive: U-251 > 100 µM | MDA-MB-231 > 100 µM | HCT-116 > 100 µM | NCI-H226 > 100 µM | MOLT-4 > 100 µM | HCC 2998 > 100 µM | SF-268 > 100 µM | HT-29 > 100 µM | CAKI-1 > 100 µM | OVCAR-5 > 100 µM | SF-539 > 100 µM | Hs-578T > 100 µM | KM12 > 100 µM | COLO 205 > 100 µM | T47D > 100 µM | IGROV-1 > 100 µM | NCI/ADR-RES > 100 µM | NCI-H522 > 100 µM | SK-OV-3 > 100 µM

Oc1cc(CN2COc3ccccc32)c(O)cc1CNC1CCCCC1
inactive: U-251 17.7 µM | MDA-MB-435 24.6 µM | MDA-MB-231 21.9 µM | HCT-116 18.3 µM | MOLT-4 8.79 µM | SF-268 16.2 µM | HT-29 22 µM | CAKI-1 28.3 µM | OVCAR-5 > 100 µM | SF-539 19.5 µM | Hs-578T 28.7 µM | KM12 49.9 µM | COLO 205 17 µM | T47D 26.4 µM | IGROV-1 32.8 µM | NCI/ADR-RES 37.2 µM | NCI-H522 14.1 µM | SK-OV-3 64.9 µM

O=C(CCCN1CCC2(CC1)CC(=O)N(N1CCCCCC1)C2=O)c1ccccc1
inactive: U-251 > 100 µM | MDA-MB-435 > 100 µM | MDA-MB-231 > 100 µM | HCT-116 > 100 µM | NCI-H226 > 100 µM | MOLT-4 > 100 µM | SF-268 > 100 µM | HT-29 67.1 µM | CAKI-1 > 100 µM | OVCAR-5 > 100 µM | SF-539 > 100 µM | Hs-578T > 100 µM | COLO 205 > 100 µM | T47D > 100 µM | IGROV-1 > 100 µM | NCI/ADR-RES > 100 µM | NCI-H522 > 100 µM | SK-OV-3 > 100 µM

O=C1Nc2ccc(Br)cc2/C1=N/NC(=S)Nc1ccc([N+](=O)[O-])cc1
inactive: U-251 7.13 µM | MDA-MB-435 6.41 µM | MDA-MB-231 16.7 µM | HCT-116 5.35 µM | NCI-H226 15.9 µM | MOLT-4 5.31 µM | SF-268 9.04 µM | HT-29 7.71 µM | CAKI-1 4.06 µM | OVCAR-5 13.2 µM | SF-539 20.2 µM | Hs-578T 14.2 µM | KM12 5.94 µM | COLO 205 21.7 µM | T47D 7.45 µM | IGROV-1 5.08 µM | NCI/ADR-RES 2.01 µM | NCI-H522 9.79 µM | SK-OV-3 12.7 µM

Cc1ccc2nc(-c3ccc(-n4c(C)nc(=O)c(-c5ccc(F)cc5)c4C)cc3)sc2c1
inactive: U-251 15.5 µM | MDA-MB-435 15.1 µM | MDA-MB-231 14.1 µM | HCT-116 11.9 µM | NCI-H226 17.5 µM | MOLT-4 7 µM | SF-268 20.3 µM | HT-29 13.2 µM | CAKI-1 17.8 µM | OVCAR-5 19.3 µM | Hs-578T 25.9 µM | KM12 17.3 µM | COLO 205 4.97 µM | T47D 3.3 µM | IGROV-1 14.2 µM | NCI/ADR-RES 15 µM | NCI-H522 15.1 µM | SK-OV-3 15.1 µM
